We go through eight molecules from ChEMBL document CHEMBL5226311, “Recent Progress on Tubulin Inhibitors with Dual Targeting Capabilities for Cancer Therapy” (J Med Chem, 2021).

In one assay the test system is MDA-MB-435. Put plainly: Antiproliferative activity against human MDA-MB-435 cells assessed as cell growth inhibition. The assay is classed as functional.
In the next assay the test system is SF-539. Put plainly: Antiproliferative activity against human SF-539 cells assessed as cell growth inhibition. It is filed as functional.
A further assay relates to A498. Put plainly: Antiproliferative activity against human A498 cells assessed as cell growth inhibition. It is filed as functional.
The next assay concerns SN12C. Put plainly: Antiproliferative activity against human SN12C cells assessed as cell growth inhibition. The assay is classed as functional.
The next assay deals with CCRF-CEM. Put plainly: Antiproliferative activity against human CCRF-CEM cells assessed as cell growth inhibition. It is filed as functional.
Another assay concerns NCI-H322M. As to the kind of experiment: Antiproliferative activity against human NCI-H322M cells assessed as cell growth inhibition. The assay is classed as functional.
A further assay has as its system LOX IMVI. As to the kind of experiment: Antiproliferative activity against human LOX IMVI cells assessed as cell growth inhibition. The assay is classed as functional.
The subject of the next assay is BT-549. As to the kind of experiment: Antiproliferative activity against human BT-549 cells assessed as cell growth inhibition. The assay is classed as functional.
The next assay deals with RXF 393. As to the kind of experiment: Antiproliferative activity against human RXF 393 cells assessed as cell growth inhibition. The assay is classed as functional.
For a further assay, the system named is SW-620. As to the kind of experiment: Antiproliferative activity against human SW-620 cells assessed as cell growth inhibition. It is filed as functional.
For another assay, the system named is SNB-75. Put plainly: Antiproliferative activity against human SNB-75 cells assessed as cell growth inhibition. It is filed as functional.
In another assay the test system is NCI/ADR-RES. Put plainly: Antiproliferative activity against human NCI/ADR-RES cells assessed as cell growth inhibition. It is filed as functional.
Another assay relates to M14. As to the kind of experiment: Antiproliferative activity against human M14 cells assessed as cell growth inhibition. It is filed as functional.
Assay [1] has as its system A549. Put plainly: Antiproliferative activity against human A549 cells assessed as cell growth inhibition. It is filed as functional, cell-based.
Assay [2] concerns the target Tubulin. Put plainly: Inhibition of tubulin polymerization (unknown origin). It is filed as protein-complex assay, Homo sapiens.
The next assay concerns HCT-15. As to the kind of experiment: Antiproliferative activity against human HCT-15 cells assessed as cell growth inhibition. It is filed as functional.
For the next assay, the system named is NCI-H522. As to the kind of experiment: Antiproliferative activity against human NCI-H522 cells assessed as cell growth inhibition. It is filed as functional.
In another assay the test system is OVCAR-8. As to the kind of experiment: Antiproliferative activity against human OVCAR-8 cells assessed as cell growth inhibition. It is filed as functional.
For a further assay, the system named is Hs-578T. Put plainly: Antiproliferative activity against human Hs-578T cells assessed as cell growth inhibition. It is filed as functional.
Assay [3] has as its system K562. As to the kind of experiment: Antiproliferative activity against human K562 cells assessed as cell growth inhibition. It is filed as functional.
For the next assay, the system named is PC-3. Put plainly: Antiproliferative activity against human PC-3 cells assessed as cell growth inhibition. It is filed as functional.
For assay [4], the system named is MCF7. As to the kind of experiment: Antiproliferative activity against human MCF7 cells assessed as cell growth inhibition. The assay is classed as functional, cell-based.
A further assay deals with SF-295. Put plainly: Antiproliferative activity against human SF-295 cells assessed as cell growth inhibition. The assay is classed as functional.
The test system of a further assay is KM12. Put plainly: Antiproliferative activity against human KM12 cells assessed as cell growth inhibition. The assay is classed as functional.
For a further assay, the system named is OVCAR-3. As to the kind of experiment: Antiproliferative activity against human OVCAR-3 cells assessed as cell growth inhibition. The assay is classed as functional.
Another assay has as its system HL-60(TB). Put plainly: Antiproliferative activity against human HL-60(TB) cells assessed as cell growth inhibition. It is filed as functional.
The next assay concerns DU-145. As to the kind of experiment: Antiproliferative activity against human DU-145 cells assessed as cell growth inhibition. It is filed as functional.
Another assay deals with EA.hy 926. As to the kind of experiment: Antiproliferative activity against human EA.hy 926 cells assessed as cell growth inhibition. It is filed as functional, cell-based.
A further assay deals with DLD-1. As to the kind of experiment: Antiproliferative activity against MTAs-resistant human DLD-1 cells overexpressing P-gp assessed as cell growth inhibition. The assay is classed as functional, cell-based.
The next assay concerns KB. Put plainly: Antiproliferative activity against human KB cells assessed as cell growth inhibition. It is filed as functional, cell-based.
For assay [5], the system named is HCT-116. Put plainly: Antiproliferative activity against human HCT-116 cells assessed as cell growth inhibition. It is filed as functional, cell-based.
Assay [6] addresses Tubulin. Put plainly: Inhibition of tubulin depolymerization (unknown origin). It is filed as protein-complex assay, Homo sapiens.
The test system of another assay is HONE1 cell line. Put plainly: Antiproliferative activity against human HONE1 cell line assessed as cell growth inhibition. It is filed as functional, cell-based.
A short description of assay [7]: Antiproliferative activity against human LAMA84-s cells assessed as cell growth inhibition measured after 72 hrs by MTT assay. The assay is classed as functional, cell-based. Background: Tetrazolium assays rely on reduction of a dye to a coloured formazan, in cell work by metabolically active cells.
The test system of the next assay is U-266. As to the kind of experiment: Antiproliferative activity against human U-266 cells assessed as cell growth inhibition measured after 72 hrs by MTT assay. It is filed as functional, cell-based. The following applies: U-266, 72 h.
The subject of another assay is Ramos. As to the kind of experiment: Antiproliferative activity against human Ramos cells assessed as cell growth inhibition measured after 72 hrs by MTT assay. The assay is classed as functional, cell-based.
A further assay concerns A-375. Put plainly: Antiproliferative activity against human A-375 cells assessed as cell growth inhibition measured after 72 hrs by MTT assay. The assay is classed as functional, cell-based. The following applies: A-375, 72 h.
In a further assay the test system is A2780S. Put plainly: Antiproliferative activity against human A2780S cells assessed as cell growth inhibition measured after 72 hrs by MTT assay. It is filed as functional, cell-based.
The next assay deals with MV4-11. As to the kind of experiment: Antiproliferative activity against human MV4-11 cells assessed as cell growth inhibition measured after 72 hrs by MTT assay. The assay is classed as functional, cell-based. The following applies: MV4-11, 72 h.
The test system of the next assay is SK-OV-3. As to the kind of experiment: Antiproliferative activity against human SK-OV-3 cells assessed as cell growth inhibition measured after 72 hrs by MTT assay. The following applies: SK-OV-3, 72 h. It is filed as functional, cell-based.
Assay [8] can be described thus: Antiproliferative activity against human HBL1 cells assessed as cell growth inhibition measured after 72 hrs by MTT assay. The assay is classed as functional, cell-based. The following applies: HBL1, 72 h.
The next assay relates to JeKo-1. Put plainly: Antiproliferative activity against human JeKo-1 cells assessed as cell growth inhibition measured after 72 hrs by MTT assay. It is filed as functional, cell-based. The following applies: JeKo-1, 72 h.
Assay [9] deals with K562. Put plainly: Antiproliferative activity against human K562 cells assessed as cell growth inhibition measured after 72 hrs by MTT assay. It is filed as functional, cell-based. To be noted: K562, 72 h.
A short description of assay [10]: Antiproliferative activity against human ARD cells assessed as cell growth inhibition measured after 72 hrs by MTT assay. The assay is classed as functional, cell-based.
In assay [11] the test system is MCF7. As to the kind of experiment: Antiproliferative activity against human MCF7 cells assessed as cell growth inhibition measured after 72 hrs by MTT assay. The assay is classed as functional, cell-based. The following applies: MCF7, 72 h.
The test system of the next assay is NCI-H460. Put plainly: Antiproliferative activity against human NCI-H460 cells assessed as cell growth inhibition measured after 72 hrs by MTT assay. The assay is classed as functional, cell-based. The following applies: NCI-H460, 72 h.
The test system of a further assay is RPMI-8226. As to the kind of experiment: Antiproliferative activity against human RPMI-8226 cells assessed as cell growth inhibition measured after 72 hrs by MTT assay. The assay is classed as functional, cell-based. To be noted: RPMI-8226, 72 h.
The test system of assay [12] is A549. As to the kind of experiment: Antiproliferative activity against human A549 cells assessed as cell growth inhibition measured after 72 hrs by MTT assay. The following applies: A549, 72 h. It is filed as functional, cell-based.
The subject of a further assay is MM1.S. Put plainly: Antiproliferative activity against human MM1.S cells assessed as cell growth inhibition measured after 72 hrs by MTT assay. The assay is classed as functional, cell-based.
The next assay has as its system HepG2. Put plainly: Antiproliferative activity against human HepG2 cells assessed as cell growth inhibition measured after 72 hrs by MTT assay. The assay is classed as functional, cell-based. The following applies: HepG2, 72 h.
Another assay has as its system HT-29. As to the kind of experiment: Antiproliferative activity against human HT-29 cells assessed as cell growth inhibition measured after 72 hrs by MTT assay. To be noted: HT-29, 72 h. The assay is classed as functional, cell-based.
The subject of the next assay is MDA-MB-231. Put plainly: Antiproliferative activity against human MDA-MB-231 cells assessed as cell growth inhibition measured after 72 hrs by MTT assay. The assay is classed as functional, cell-based. The following applies: MDA-MB-231, 72 h.
Assay [13] concerns HCT-116. Put plainly: Antiproliferative activity against human HCT-116 cells assessed as cell growth inhibition measured after 72 hrs by MTT assay. It is filed as functional, cell-based. The following applies: HCT-116, 72 h.
A short description of assay [14]: Antiproliferative activity against human U87MG Human EGFR vIII cells assessed as cell growth inhibition. The assay is classed as functional, cell-based.
A further assay concerns U-251. Put plainly: Antiproliferative activity against human U-251 cells assessed as cell growth inhibition. The assay is classed as functional, cell-based.
For a further assay, the system named is A 172. As to the kind of experiment: Antiproliferative activity against human A-172 cells assessed as cell growth inhibition. It is filed as functional, cell-based.
Assay [15] is described as follows: Antiproliferative activity against human U87 cells assessed as cell growth inhibition. It is filed as functional, cell-based, U-87MG ATCC. To be noted: U-87 MG.

For orientation: GI50 means the concentration that inhibits growth by half. Usually IC50 stands for the concentration at which inhibition is half-maximal. With `COc1ccc(C(=O)c2cc(C)c(OC)c(C)c2)cc1OC(=O)CCl`, the concentration for 50% growth inhibition (GI50) in the assay with MDA-MB-435, in the assay with SF-539, in the assay on A498, in the assay on SN12C, with CCRF-CEM and with NCI-H322M was less than 0.01 µM in each case. Further, the concentration for 50% growth inhibition (GI50) in the assay on LOX IMVI, in the assay with BT-549, with RXF 393, with SW-620, with SNB-75 and in the assay on NCI/ADR-RES was less than 0.01 µM in each case. In addition, the concentration for 50% growth inhibition (GI50) with M14, in the assay with A549 [1], in the assay with HCT-15, in the assay on NCI-H522, in the assay with OVCAR-8 and with Hs-578T was less than 0.01 µM throughout. In addition, the GI50 in the assay on K562 [3], in the assay with PC-3, in the assay on MCF7 [4], with SF-295, in the assay with KM12 and with OVCAR-3 was less than 0.01 µM in each case. In addition, the concentration for 50% growth inhibition (GI50) with HL-60(TB) and in the assay on DU-145 was less than 0.01 µM in each case. This molecule also returned an IC50 at Tubulin [2] of 1.3 µM.
As to `COc1ccc(-c2ocnc2-c2cc(Br)c(OC)c(OC)c2)cc1OCCCC(=O)NO`, the IC50 in the assay with EA.hy 926 stood at 0.018 µM.
As for `CCCCC(C#CC(=O)OC)O/C=C/C(=O)OC` (stereo not given), the IC50 in the assay on DLD-1 came out at 0.45 µM.
`COC(=O)NCCc1c(C(=O)c2ccccc2[N+](=O)[O-])[nH]c2ccccc12`: the IC50 in the assay with A549 [1] came to 0.74 µM; with MCF7 [4], 1.59 µM.
`COc1cc(C(=O)c2ccc3c(n2)C(=O)C(N2CCCC2)=CC3=O)cc(OC)c1OC`: the IC50 turned out to be 0.07 µM in the assay with KB, 0.07 µM with HCT-116 [5], 5.9 µM against Tubulin [6] and 0.07 µM with HONE1 cell line.
With `COc1ccn2c(C(C)=O)cc(C(=O)c3ccc4c(c3)Sc3ccccc3N4)c2c1`, the GI50 with MDA-MB-435 was determined as 0.019 µM.
Regarding `COc1ccc(N(C)c2nc(C)nc3ccccc23)cc1OCCCC(=O)NO`, the IC50 (in assay [7]; in the assay with U-266; in the assay with Ramos; with A-375; in the assay on A2780S; with MV4-11) was 0.031 µM in each case. Also, the IC50 (with SK-OV-3; in assay [8]; in the assay on JeKo-1; in the assay on K562 [9]; in assay [10]; with MCF7 [11]) was 0.031 µM each time. The IC50 in the assay with NCI-H460, in the assay with RPMI-8226, with A549 [12], in the assay on MM1.S, in the assay with HepG2 and in the assay with HT-29 was 0.031 µM each time. The IC50 with MDA-MB-231 and in the assay on HCT-116 [13] was 0.031 µM in each case.
By EC50 is commonly meant the midpoint of the concentration-response curve. As to `O=C(CCCc1ccc(-c2ccccc2F)cc1)Nc1ccc(O)cc1`, the EC50 (in [14]; in the assay on U-251; in the assay with A 172; in assay [15]) was 0.6 µM in each case.
